Entries after “also recorded” stand apart in the source; their conditions may differ. Where no end group is shown, it is not given here.

The results in this text go back to patent US9462803B2, “Organ preservation and/or perfusion” (Philadelphia College of Osteopathic Medicine, priority 2005, dated 2016).

The subject of test [1] is isolated perfused rat hearts. Nature of the test: Isolated perfused rat heart ischemia/reperfusion (I/R) cardiac function, with or without PMNs. The conditions noted are these: for cardioprotection: I/R+PMN. The method, then:
Male Sprague Dawley rats (275-325 g, Ace Animals, Boyertown, Pa.) were anesthetized with 60 mg/kg pentobarbital sodium intraperitoneally (i.p.). Sodium heparin (1,000 U) was also administered i.p. The hearts were rapidly excised, the ascending aortas were cannulated, and retrograde perfusion of the heart was initiated with a modified Krebs buffer maintained at 37° C. at a constant pressure of 80 mmHg. The Krebs buffer had the following composition (in mmol/l): 17 dextrose, 120 NaCl, 25 NaHCO3, 2.5 CaCl2, 0.5 EDTA, 5.9 KCl, and 1.2 MgCl2. The perfusate was aerated with 95% O2 and 5% CO2 and equilibrated at a pH of 7.3-7.4. The two side arms in the perfusion line proximal to the heart inflow cannula allowed PMNs, plasma without PKC ε peptide inhibitor (control hearts) or plasma containing different concentrations of PKC ε peptide inhibitor (1 or 5 μM) to be directly infused into the coronary inflow line. Coronary flow was monitored by a flow meter (T106, Transonic System, Inc., Ithaca, N.Y.). LVDP and +dP/dtmax were monitored using a pressure transducer (SPR-524, Millar Instruments, Inc., Houston, Tex.), which was positioned in the left ventricular cavity. Hearts were immersed in a water-jacketed reservoir containing 160 mL of Krebs buffer maintained at 37° C. Coronary flow, LVDP and +dP/dtmax were recorded using a Powerlab Station acquisition system (ADInstruments, Grand Junction, Colo.) in conjunction with a computer.
LVDP, +dP/dtmax, and coronary flow were measured every 5 min for 15 min to equilibrate the hearts and obtain a baseline measurement. LVDP was defined as left ventricular end-systolic pressure minus left ventricular end-diastolic pressure. After 15 min, the flow of the Krebs buffer was reduced to zero for 20 min to induce global ischemia. At reperfusion, hearts were infused for 5 min with 200×10^6 PMN resuspended in 5 mL of Krebs buffer plus 5 mL of plasma at a rate of 1 mL/min. In some experiments, PKC ε peptide inhibitor (Genemed Synthesis, Inc., San Francisco, Calif.) was added to plasma at a final concentration of 1 or 5 μM. Sham I/R hearts were not subjected to ischemia and were not perfused with PMNs.
The following groups of isolated perfused rat hearts were used:
Group 1: Sham I/R hearts were not subjected to ischemia and were not perfused with PMNs, but were perfused with 5 mL of plasma (1 mL/min) at 35 minutes into perfusion (the same time point that I/R hearts would be given 5 mL of plasma, 15 minutes of baseline recordings plus 20 minutes ischemia). These hearts represented a control group to determine if the isolated rat heart can maintain LVDP and +dP/dtmax throughout the 80-minute protocol (n=6).
Group 2: Sham I/R+PKC ε peptide inhibitor (5 μM) hearts were not subjected to ischemia and not perfused with PMNs. These hearts were administered the PKC ε peptide inhibitor (5 μM, dissolved in plasma from a 5 mM stock in H2O) 35 minutes into perfusion. This group was employed to determine if the PKC ε peptide inhibitor causes a cardiotonic or cardiodepressant effect (n=6).
Group 3: I/R hearts were subjected to 20 min of ischemia and perfused with 5 mL of plasma (1 mL/min) during the first 5 min of reperfusion, but were not perfused with PMNs. These hearts represented a control group to determine if 20 min of ischemia followed by reperfusion stunned the heart, but LVDP and +dP/dtmax will recover to baseline values (initial) by the end of the 45-minute reperfusion period (n=7).
Group 4: I/R+PKC ε peptide inhibitor (5 μM, dissolved in plasma) hearts were subjected to 20 min of ischemia and not perfused with PMNs. These hearts were perfused with 5 mL of plasma+PKC ε peptide inhibitor during the first 5 min of reperfusion. This group was employed to determine if the PKC ε peptide inhibitor causes a cardiodepressant effect in the setting of I/R without PMNs (n=6). […]

The subject of test [2] is rat aortic endothelium. Nature of the test: NO release from rat aortic endothelium. The conditions noted are these: basal 2.12±0.39. The method, then: FIG. 7 is a graph showing NO release from rat aortic endothelium in untreated (basal) segments compared to PKC ε peptide inhibitor treated segments (1, 5, and 10 μM).
FIG. 7 illustrates the NO release from rat aortic endothelium in untreated (basal) segments compared to PKC ε peptide inhibitor treated segments (1-10 μM). Acetylcholine (Ach) (10 μM) was used as a positive control. […] Although augmenting endothelial derived NO is usually associated with cardioprotection following I/R, it is speculated that the enzyme responsible for endothelial NO release (eNOS) may shift its product profile to the production of superoxide release when the substrate (L-arginine) or co-factor (BH4) is not readily available during early reperfusion.

Where [3] appears, read: I/R hearts without PMNs + inhibitor 5 μM.
[4] abbreviates: Sham I/R hearts (no ischemia, no PMNs) + inhibitor 5 μM, end of 80 min perfusion.

Regarding “PKC ε peptide inhibitor: Peptide inhibitor of PKC ε (Genemed Synthesis); preferred sequence EAVSLKPT (SEQ ID NO: 1), preferably myristoylated at the N-terminus (not fully specified (N-terminus); listed as Homo sapiens)”, the “change in +dP/dtmax, initial vs final” value in test [1] (setting [3]) was “no significant difference”; in test [1] (setting [4]), “did not show any significant change; also recorded: no significant difference”. The “change in LVDP, initial vs final” value in test [1] (setting [3]) is “no significant difference”; in test [1] (setting [4]) it was “did not show any significant change; also recorded: no significant difference”. The “final LVEDP” value in test [1] (I/R+PMN+inhibitor (5 μM), end of 45 min reperfusion, p<0.01 vs I/R+PMN) is 16±2 mmHg. The results for the cardioprotection result in test [1] (1 μM dose) and in test [1] (5 μM dose) were “not cardioprotective” and “most cardioprotective”, respectively. The “direct effect on cardiac contractile function” value in test [1] (Sham I/R hearts, 5 μM) was “no direct effect”. Besides, the NO release in test [2] (5 μM, p<0.05) is given as 0.66±0.28 pmoles/mg tissue; in test [2] (10 μM) it was 0.26±0.42 pmoles/mg tissue.
